Assay results: publication PMC8153610, “Oleacein Intestinal Permeation and Metabolism in Rats Using an In Situ Perfusion Technique” (Pharmaceutics, 2021)
Like-named read-outs stand apart in the source and are kept apart here.

Legend:
[1] = Metabolite profiling in lumen, plasma and ileum tissue after SPIP (LC–ESI–LTQ–Orbitrap–MS); format: in vivo
Description: The SPIP studies were performed in anesthetized rats according to the method described by López-Yerena and coworkers; the donor blood and surgical procedure (Figure 1) were as described in that study. Regarding the procedure of donor blood, the rats were anesthetized by isoflurane inhalation (2.5%), and the whole blood was collected via cardiac puncture. […]. In the case of the rats that underwent surgery, the rats received intraperitoneal administration of pentobarbital sodium (Dolethal) at a dose of 60 mg/kg, and a maintenance dose of isoflurane (1.5%) was given 50 min after the induction dose. Body temperature was maintained at 37 ± 0.5 °C throughout the experiment by means of a homeothermic blanket. An ileal segment of approximately 7–10 cm was cannulated. […] The phenol red included in the perfusion solution was used as non-absorbable marker for measuring water transport. To avoid the oxidation of OLEA, we carried out the SPIP experiments in a laboratory room with infrared light. Samples of both the intestinal lumen and mesenteric blood were collected simultaneously at 5 min intervals for 60 min. The outflow perfusate samples were collected in 2 mL amber vials and the blood was collected in pre-weighed lithium-heparinized tubes (BD Vacutainer). Next, the perfusate samples were centrifuged (7516× g for 10 min at 4 °C), and the tubes with blood samples were weighed and centrifuged (3000× g for 10 min at 4 °C). The supernatants were collected and immediately stored at −80 °C awaiting analysis by LC–ESI–LTQ–Orbitrap–MS.
Plasma: The extraction of OLEA and its metabolites was carried out with protein precipitation. Initially, the samples were thawed and centrifuged (11,000× g, 10 min at 4 °C). To precipitate proteins, we blended 100 µL of plasma with cold acetonitrile containing 2% of formic acid (1:5 v/v). Samples were vortex-mixed for 1 min and kept at −20 °C for 20 min. The samples were then centrifuged (11,000× g, 4 °C, 10 min), and finally 100 µL of the supernatant was transferred to vials for analysis.
Stability study and lumen samples: The stability and perfusate OLEA samples were defrosted and centrifuged (11,000× g, 4 °C, 10 min), and 100 µL of the upper phase was transferred to vials for analysis. […].
Ileum tissue: The intestinal segment perfunded with OLEA in the SPIP experiments was also analyzed to quantify the OLEA and its metabolites retained in the tissue. First, the intestinal segment was rinsed by several perfusions with TM and then cut into small sections and homogenized after the addition of water/acetonitrile (1:1 (v/v) with 0.1% ascorbic acid) with a small tissue disruptor (T10 basic ULTRA-TURRAX®, IKA laboratory technology, Staufen, Germany). The samples were sonicated in an ice bath (5 min), shaken for 1 min, and centrifuged (11,000× g, 4 °C, 10 min). To precipitate proteins, we blended 100 µL of the upper layer with cold acetonitrile containing 2% of formic acid (1:3 v/v). Samples were vortex-mixed for 1 min, kept at −20 °C for 20 min, and centrifuged again (11,000× g, 4 °C, 10 min) before analyzing the supernatant.
The quantification of OLEA and red phenol in the samples and the profiling and structural characterization of OLEA metabolites was carried out using LC–ESI–LTQ–Orbitrap–MS. LC separation was performed using an Accela chromatograph (Thermo Scientific, Hemel Hempstead, UK) equipped with a quaternary pump, a photodiode array detector, and a thermostated autosampler. A 5-μL sample aliquot was injected onto an Acquity^TM UPLC® BEH C18 Column (2.1 × 100 mm, i.d., 1.7 µm particle size) coupled to an Acquity^TM UPLC® BEH C18 Pre-Column (2.1 × 5 mm, i.d., 1.7 µm particle size) (Waters Corporation®, Wexford, Ireland) with the column temperature set at 50 °C. Eluent A was 0.05% (v/v) formic acid in water, and eluent B was 0.05% formic acid in methanol. […]. […]

[2] = Stability in the perfusion solution (transport medium) at 37 °C; format: physicochemical; conditions: for Presence of degradation products / derivatives in the perfusion solution (stability study): OLEA in transport medium, 60 min
Description: The transport medium (TM; pH 7, 9.7 g/L HBSS buffered with HEPES 10 mM) was used to infuse the compounds via the intestine. […] Red phenol was assayed at 0.1 mg/mL. The stability of these test compounds, sampled at different times, was monitored in the perfusion solution at 37 °C for 60 min. Stability study and lumen samples: The stability and perfusate OLEA samples were defrosted and centrifuged (11,000× g, 4 °C, 10 min), and 100 µL of the upper phase was transferred to vials for analysis.

[3] = cited from earlier work
[4] = cited from earlier work; remark: listed apart in the source
[5] = Single-pass intestinal perfusion (SPIP) with mesenteric blood sampling: permeability and absorption; format: in vivo; conditions: ileum, SPIP in rats
Description: The transport medium (TM; pH 7, 9.7 g/L HBSS buffered with HEPES 10 mM) was used to infuse the compounds via the intestine. […] Red phenol was assayed at 0.1 mg/mL. The stability of these test compounds, sampled at different times, was monitored in the perfusion solution at 37 °C for 60 min.
Differences were considered significant at p < 0.05.

[6] = set-up: method as in PMID 26904279; conditions: oral administration 300 mg/kg in rats; cited from earlier work
[7] = after OLEA perfusion (SPIP, 60 min)

OCCc1ccc(O)c(O)c1 [M2, hydroxytyrosol]
Detection in lumen, plasma and ileum tissue samples ([1]; rat, in vivo): found in lumen, plasma, and ileum tissue
Time of highest concentration ([1]; rat, in vivo): 55 min
Metabolite level in plasma relative to lumen (fold higher) ([1]; rat, in vivo, 60 min): 27 fold
Presence of degradation products / derivatives in the perfusion solution (stability study) [2]: absence

C/C=C(/CO)C(CC=O)CC(=O)OCCc1ccc(O)c(O)c1 (stereo not shown) [M3]
Detection in lumen, plasma and ileum tissue samples [1, 7]: detected in lumen, plasma, and ileum tissue

C/C=C(/C=O)C(CC(=O)O)CC(=O)OCCc1ccc(O)c(O)c1 (stereo not shown) [M4]
Detection in lumen, plasma and ileum tissue samples [1, 7]: detected in lumen, plasma, and ileum tissue
Metabolite level in plasma relative to lumen (fold higher) ([1]; after OLEA perfusion, at 60 min): 29 fold
Time of highest concentration ([1]; plasma and lumen samples, after OLEA perfusion, p < 0.05): 60 min

C/C=C(/C=O)C(CC(=O)OCCc1ccc(O)c(O)c1)CC(O)O (stereo not shown) [M5]
Detection in lumen, plasma and ileum tissue samples [1, 7]: detected in lumen, plasma, and ileum tissue
Presence of degradation products / derivatives in the perfusion solution (stability study) [2]: traces

C/C=C(/C=O)C(CC=O)CC(=O)OCCc1ccc(O)c(OC)c1 (stereo not shown) [M6]
Detection in lumen, plasma and ileum tissue samples [1, 7]: found in ileum tissue samples but not in the plasma and lumen

C/C=C(/C=O)C(CC(=O)O)CC(=O)OCCc1ccc(O)c(OC)c1 (stereo not shown) [M7]
Detection in lumen, plasma and ileum tissue samples [1, 7]: detected in plasma and, after being secreted by an efflux membrane protein, in lumen samples

C/C=C(/C=O)C(CC(=O)OCCc1ccc(O)c(OC)c1)CC(O)O (stereo not shown) [M8]
Detection in lumen, plasma and ileum tissue samples [1, 7]: found in ileum tissue samples but not in the plasma and lumen

CC=C(CO)C(CC=O)CC(=O)OCCc1ccc(OC2OC(C(=O)O)C(O)C(O)C2O)c(O)c1 (stereo not shown) [M9]
Main product of phase II biotransformation ([1]; all the samples (plasma, lumen, ileum tissue)): main product of phase II biotransformation reactions in all the samples
Time of highest relative abundance ([1]; lumen samples, after OLEA perfusion, p < 0.05): 55 to 60 min
Time of highest relative abundance ([1]; plasma, after OLEA perfusion, p < 0.05): 45 to 60 min

CC=C(C=O)C(CC(=O)OCCc1ccc(OC2OC(C(=O)O)C(O)C(O)C2O)c(OC)c1)CC(O)O (stereo not shown) [M11]
Detection in lumen, plasma and ileum tissue samples [1, 7]: detected in lumen and ileum tissue samples but not in plasma

COc1ccc2cc([C@H](C)C(=O)O)ccc2c1 [Naproxen]
Peff ± SD ([3]; Colon): 2.06 ± 1.04 × 10^−4 cm/s
Peff ± SD ([3]; Ileum, ref 56): 1.78 ± 0.52 × 10^−4 cm/s
Peff ± SD ([3]; Ileum, ref 57): 1.17 ± 0.23 × 10^−4 cm/s
Peff ± SD ([3]; Jejunum, ref 33): 1.19 ± 0.12 × 10^−4 cm/s
Peff ± SD ([3]; Jejunum, ref 56): 1.47 ± 0.25 × 10^−4 cm/s
Peff ± SD ([3]; Jejunum, ref 58): 1.17 ± 0.23 × 10^−4 cm/s

C/C=C(/C=O)[C@@H](CC=O)CC(=O)OCCc1ccc(O)c(O)c1 [OLEA, Oleacein]
log P (octanol/water) ([4]; ref 16): 1.02
log P (octanol/water) ([4]; ref 60): 1.53
Stability in the perfusion solution ([2]; over 60 min, p > 0.05): remained stable
Absorption (%) ([5]; mean ± SD, n = 4): 48.98 ± 12.27%
Mean permeability ratio (Peff) of OLEA/naproxen ([5]; p > 0.05): 1.24
Effective intestinal permeability (Peff) at 60 min ([5]; rat, pH 7, luminal disappearance, mean ± SD, n = 4, read-out: Intestinal effective permeability coefficient (Peff) ± SD): 183 ± 18 ×10⁻⁶ cm/s
Detection in portal plasma [6]: did not observe

elenolic acid
Detection in lumen, plasma and ileum tissue samples [1, 7]: not detected in any sample
